Laboratory results: patent US20220151274A1, “PREPARATIONS WITH C-METHYL FLAVONOIDS” (BRAIN AG, priority 2018, published 2022)

Assay: Tasting of high-purity Pinoquercetin + potassium chloride (KCl)
Type: in vivo
Settings: for bitterness of KCl is reduced by the product, share of responses: 14 responses
Experimental: The sensory evaluation of the samples was performed twice by a team of seven experienced assessors.

[1] = 10 μM (3.2 ppm) with 1.5% potassium chloride in spring water
[2] = 25 μM (8 ppm) with 1.5% potassium chloride in spring water
[3] = 50 μM (16 ppm) with 1.5% potassium chloride in spring water

Cc1c(O)cc2oc(-c3ccc(O)c(O)c3)c(O)c(=O)c2c1O [Pinoquercetin]
bitterness of KCl is reduced by the product, share of responses (1 μM (0.3 ppm) with 1.5% potassium chloride in spring water): product in 64% of responses average | dominant flavour [1]: sure dominant flavour: saltiness | bitterness of KCl is reduced by the product, share of responses [1]: product in 64% of responses average | dominant flavour [2]: flavour: saltiness | bitterness of KCl is reduced by the product, share of responses [2]: product in 64% of responses average | dominant flavour [3]: flavour: saltiness | bitterness of KCl is reduced by the product, share of responses [3]: product in 71% of responses average
